This note sets out measurements from ChEMBL document CHEMBL3817813, “Exploiting the co-reliance of tumours upon transport of amino acids and lactate: Gln and Tyr conjugates of MCT1 inhibitors” (Medchemcomm, 2016).

The structures appear in SMILES notation. Calls of active or inactive are those of the source. The rule behind the calls is not given here.

Series [1] deals with MDA-MB-231. The experiment in a line: Cytotoxicity against MCT1-deficient human MDA-MB-231 cells at 10 uM measured after 96 hrs by MTT assay. Type of series: cell-based. To be noted: mda-mb-231, 96 h. In general terms: Tetrazolium assays rely on reduction of a dye to a coloured formazan, in cell work by metabolically active cells.
Series [2] in a line: Drug uptake in Sprague-Dawley rat liver at 20 mg/kg, ip measured after 6 hrs by LC-MS/MS analysis. The conditions noted are these: read-out: Drug uptake. Type of series: ADME, organism-based.
Series [3] is described as follows: Drug uptake in Sprague-Dawley rat brain at 20 mg/kg, ip measured after 24 hrs by LC-MS/MS analysis. Type of series: ADME, organism-based. The conditions noted are these: read-out: Drug uptake.
The nature of series [4]: Drug uptake in Sprague-Dawley rat plasma at 20 mg/kg, ip measured after 7 days by LC-MS/MS analysis. Type of series: ADME, organism-based.
Series [5] can be described thus: Drug uptake in Sprague-Dawley rat kidney at 20 mg/kg, ip measured after 24 hrs by LC-MS/MS analysis. The conditions noted are these: read-out: Drug uptake. Type of series: ADME, organism-based.
Series [6] in a line: Drug uptake in Sprague-Dawley rat spleen at 20 mg/kg, ip measured after 6 hrs by LC-MS/MS analysis. Type of series: ADME, organism-based. To be noted: read-out: Drug uptake.
A short description of series [7]: Drug uptake in Sprague-Dawley rat plasma at 20 mg/kg, ip measured after 6 hrs by LC-MS/MS analysis. Type of series: ADME, organism-based.
Series [8] can be described thus: Drug uptake in Sprague-Dawley rat blood at 20 mg/kg, ip measured after 6 hrs by LC-MS/MS analysis. Type of series: ADME, organism-based. To be noted: whole blood, read-out: Drug uptake.
Series [9] can be described thus: Drug uptake in Sprague-Dawley rat kidney at 20 mg/kg, ip measured after 7 days by LC-MS/MS analysis. Type of series: ADME, organism-based. The conditions noted are these: read-out: Drug uptake.
Series [10] is described as follows: Drug uptake in Sprague-Dawley rat lung at 20 mg/kg, ip measured after 7 days by LC-MS/MS analysis. Type of series: ADME, organism-based. The conditions noted are these: read-out: Drug uptake.
Series [11] can be described thus: Drug uptake in Sprague-Dawley rat lung at 20 mg/kg, ip measured after 24 hrs by LC-MS/MS analysis. Type of series: ADME, organism-based. The conditions noted are these: read-out: Drug uptake.
A short description of series [12]: Drug uptake in Sprague-Dawley rat spleen at 20 mg/kg, ip measured after 24 hrs by LC-MS/MS analysis. The conditions noted are these: read-out: Drug uptake. Type of series: ADME, organism-based.
The nature of series [13]: Drug uptake in Sprague-Dawley rat blood at 20 mg/kg, ip measured after 24 hrs by LC-MS/MS analysis. Type of series: ADME, organism-based. To be noted: whole blood, read-out: Drug uptake.
Series [14] can be described thus: Drug uptake in NOD/SCID mouse tumor measured after 24 hrs. Type of series: ADME, Neoplasm. The conditions noted are these: read-out: Drug uptake.
Series [15] in a line: Drug uptake in Sprague-Dawley rat spleen at 20 mg/kg, ip measured after 7 days by LC-MS/MS analysis. Type of series: ADME, organism-based. To be noted: read-out: Drug uptake.
Series [16] can be described thus: Drug uptake in Sprague-Dawley rat kidney at 20 mg/kg, ip measured after 6 hrs by LC-MS/MS analysis. The conditions noted are these: read-out: Drug uptake. Type of series: ADME, organism-based.
Series [17] addresses T1, Monocarboxylate transporter 1 (Homo sapiens) (UniProt P53985).
T1 sequence (whole entry): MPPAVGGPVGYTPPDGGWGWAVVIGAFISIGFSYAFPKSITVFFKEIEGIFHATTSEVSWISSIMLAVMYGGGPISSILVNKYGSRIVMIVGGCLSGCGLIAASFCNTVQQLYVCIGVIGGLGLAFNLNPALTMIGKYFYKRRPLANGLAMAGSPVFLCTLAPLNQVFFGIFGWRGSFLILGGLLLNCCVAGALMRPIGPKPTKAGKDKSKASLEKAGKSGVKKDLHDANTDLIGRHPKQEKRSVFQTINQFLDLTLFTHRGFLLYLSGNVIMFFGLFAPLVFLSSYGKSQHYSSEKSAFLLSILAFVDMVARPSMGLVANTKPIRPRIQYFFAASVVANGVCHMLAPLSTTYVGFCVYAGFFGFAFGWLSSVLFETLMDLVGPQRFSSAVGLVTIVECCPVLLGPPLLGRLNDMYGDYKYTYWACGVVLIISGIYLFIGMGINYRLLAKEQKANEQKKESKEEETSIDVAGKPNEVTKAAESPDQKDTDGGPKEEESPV
The experiment in a line: Activity at MCT1 (unknown origin) using [14C]lactate by cell based lactate flux assay.

The nature of series [18]: Drug uptake in Sprague-Dawley rat plasma at 20 mg/kg, ip measured after 24 hrs by LC-MS/MS analysis. Type of series: ADME, organism-based.
A short description of series [19]: Drug uptake in Sprague-Dawley rat liver at 20 mg/kg, ip measured after 24 hrs by LC-MS/MS analysis. The conditions noted are these: read-out: Drug uptake. Type of series: ADME, organism-based.
The nature of series [20]: Drug uptake in Sprague-Dawley rat lung at 20 mg/kg, ip measured after 6 hrs by LC-MS/MS analysis. To be noted: read-out: Drug uptake. Type of series: ADME, organism-based.
A short description of series [21]: Drug uptake in Sprague-Dawley rat liver at 20 mg/kg, ip measured after 7 days by LC-MS/MS analysis. Type of series: ADME, organism-based. The conditions noted are these: read-out: Drug uptake.
A short description of series [22]: Drug uptake in Sprague-Dawley rat brain at 20 mg/kg, ip measured after 6 hrs by LC-MS/MS analysis. Type of series: ADME, organism-based. To be noted: read-out: Drug uptake.
Series [23] is described as follows: Drug uptake in Sprague-Dawley rat brain at 20 mg/kg, ip measured after 7 days by LC-MS/MS analysis. Type of series: ADME, organism-based. To be noted: read-out: Drug uptake.
Series [24] in a line: Drug uptake in Sprague-Dawley rat blood at 20 mg/kg, ip measured after 7 days by LC-MS/MS analysis. Type of series: ADME, organism-based. The conditions noted are these: whole blood, read-out: Drug uptake.

Regarding `CC(C)Cc1nn(C)c(=O)c2c(SCCCO)n(Cc3ccc(Br)c4ccccc34)cc12`, the Activity entry in series [1] is recorded as “Non-toxic”.

For the compound `CC(C)Cc1nn(C)c(=O)c2c(SCCCO)n(Cc3ccc(C#CCCCOc4ccc(C[C@H](N)C(=O)O)cc4)c4ccccc34)cc12`, the concentration at 6 h was found to be 2500 nM in [2]; 2260 nM in series [6]; 3270 nM in series [7]; 4330 nM in [8]; 1620 nM in series [16]; 1540 nM in series [20]. Moreover, the concentration at 6 h in [22] amounted to 110 nM. The concentration at 24 h amounted to 62 nM in series [3]; 960 nM in series [5]; 520 nM in series [11]; 1060 nM in series [12]; 76 nM in series [13]; 300 nM in series [14]. The concentration at 24 h turned out to be 12 nM in series [18] and 940 nM in series [19]. Also, the concentration at 168 h in [4] stood at 4 nM; in [9], 210 nM; in series [10], 110 nM; in series [15] it was 190 nM; in [21] it was 98 nM; in [23], 43 nM. In series [24], the concentration at 168 h was 41 nM. In addition, in series [17], the outcome was Active. Besides, in series [1], the Activity result is reported as “Non-toxic”.

Turning to `CC(C)Cc1nn(C)c(=O)c2c(SCCCO)n(Cc3ccnc(Cl)c3)cc12`, the Activity result in series [1] was “Non-toxic”.

For `CC(C)Cc1nn(C)c(=O)c2c(SCCCO)n(Cc3ccc(Cl)nc3)cc12`, the Activity entry in series [1] is recorded as “Non-toxic”.

For `CC(C)Cc1nn(C)c(=O)c2c(SCCCO)n(Cc3cc(NCCCCCNC(=O)[C@@H](N)CCC(N)=O)nc4ccccc34)cc12`, the Activity entry in series [1] was “Non-toxic”.

For `CC(C)Cc1nn(C)c(=O)c2c(SCCCO)n(Cc3ccnc(NCCCCCNC(=O)[C@@H](N)CCC(N)=O)c3)cc12`, in series [1], the Activity result is “Non-toxic”.

With `CC(C)Cc1nn(C)c(=O)c2c(SCCCO)n(Cc3cnc(Cl)c4ccccc34)cc12`, in series [1], the Activity entry is on record as “Non-toxic”.

On to `CC(C)Cc1nn(C)c(=O)c2c(SCCCO)n(Cc3cnc(NCCCCCN)c4ccccc34)cc12`, for which the Activity result in series [1] is on record as “Non-toxic”.

On to `CC(C)Cc1nn(C)c(=O)c2c(SCCCO)n(Cc3cc(Cl)nc4ccccc34)cc12`, for which, in series [1], the Activity result is “Non-toxic”.

As for `CC(C)Cc1nn(C)c(=O)c2c(SCCCO)n(Cc3ccc(NCCCCCN)nc3)cc12`, the Activity entry in series [1] is reported as “Non-toxic”.

As for `CC(C)Cc1nn(C)c(=O)c2c(SCCCO)n(Cc3ccnc(NCCCCCN)c3)cc12`, the Activity result in series [1] is given as “Non-toxic”.

Regarding `CC(C)Cc1nn(C)c(=O)c2c(SCCCO)n(Cc3ccc(NCCCCCNC(=O)[C@@H](N)CCC(N)=O)nc3)cc12`, the Activity result in [1] is on record as “Non-toxic”.

Consider `CC(C)Cc1nn(C)c(=O)c2c(SCCCO)n(Cc3cnc(NCCCCCNC(=O)[C@@H](N)CCC(N)=O)c4ccccc34)cc12`, for which, in series [17], the result was Active. The Activity entry in [1] is “Non-toxic”.

For `CC(C)Cc1nn(C)c(=O)c2c(SCCCO)n(Cc3cc(NCCCCCN)nc4ccccc34)cc12`, the Activity result in [1] was “Non-toxic”.

Regarding `CC(C)Cc1nn(C)c(=O)c2c(SCCCO)n(Cc3cccc4ccccc34)cc12`, the concentration at 6 h in [2] amounted to 63 nM; in series [6], 740 nM; in [7] it was 27 nM; in series [8], 140 nM; in series [16], 120 nM; in series [20], 61 nM. Besides, in series [22], the concentration at 6 h came to 190 nM. Besides, the concentration at 24 h was found to be 270 nM in series [3]; 160 nM in series [5]; 74 nM in [11]; 420 nM in series [12]; 63 nM in [13]; 4 nM in series [18]. Further, in [19], the concentration at 24 h worked out at 60 nM. Besides, in series [15], the concentration at 168 h came out at 43 nM. In addition, the Activity entry in series [1] is reported as “Non-toxic”.

Consider `CC(C)Cc1nn(C)c(=O)c2c(SCCCO)n(Cc3ccc(C#CCCCNC(=O)[C@@H](N)CCC(N)=O)c4ccccc34)cc12`, for which, in series [17], the result was Active. For the same compound, the Activity entry in [1] is “Non-toxic”.
